What all share (assay type): biochemical
One experiment deals with JAK3-JH1JH2 (Homo sapiens (Human), UniProt P52333). The experiment is described as follows: Enzymatic inhibition assay (RapidFire HTMS), JAK3. The settings on record: 150 μM ATP, 40 μM substrate. In short, it runs like this: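 Compounds tested in duplicate over 11-point 1:3 or 1:4 dilution series; no-enzyme wells as negative control. After 45 min at 25 °C, TFA quench with internal standard, and phosphorylated product quantified by RapidFire–QTrap mass spectrometry relative to the uninhibited reaction.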
Sequence of JAK3-JH1JH2 (P52333 512-1124): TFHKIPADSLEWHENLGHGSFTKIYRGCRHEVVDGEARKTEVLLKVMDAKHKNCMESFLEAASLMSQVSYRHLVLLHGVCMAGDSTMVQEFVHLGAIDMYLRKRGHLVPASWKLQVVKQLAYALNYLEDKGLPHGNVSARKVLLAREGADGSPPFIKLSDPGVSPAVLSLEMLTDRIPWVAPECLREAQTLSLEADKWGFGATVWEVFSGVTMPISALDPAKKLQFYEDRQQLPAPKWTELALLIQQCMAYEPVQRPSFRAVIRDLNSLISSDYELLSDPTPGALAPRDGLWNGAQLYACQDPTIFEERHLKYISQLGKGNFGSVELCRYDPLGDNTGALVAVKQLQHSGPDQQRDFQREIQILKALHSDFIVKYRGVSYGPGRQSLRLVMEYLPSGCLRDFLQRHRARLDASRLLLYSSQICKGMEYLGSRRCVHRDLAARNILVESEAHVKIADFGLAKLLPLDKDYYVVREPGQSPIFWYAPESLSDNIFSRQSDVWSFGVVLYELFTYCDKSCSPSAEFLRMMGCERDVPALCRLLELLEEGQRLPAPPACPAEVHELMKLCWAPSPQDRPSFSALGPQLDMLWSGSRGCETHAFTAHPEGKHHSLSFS

A further experiment addresses JAK2-JH1JH2 (Homo sapiens (Human), UniProt O60674). The experiment is described as follows: Enzymatic inhibition assay (RapidFire HTMS), JAK2. The settings on record: 30 μM ATP, 40 μM substrate. In short, it runs like this:
(§1)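 Quenched with 0.5% TFA plus internal-standard peptide; phosphorylated product quantified by RapidFire C4 SPE–ESI-MS, 11-point 1:3 or 1:4 dilutions in duplicate.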

Another experiment concerns the target Tyk2-JH1JH2 (Homo sapiens (Human), UniProt P29597, C1142A/C936A). The experiment is described as follows: Enzymatic inhibition assay (RapidFire HTMS), Tyk2. The settings on record: 50 μM ATP, 200 μM substrate. The procedure, abridged:
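Compounds were tested in duplicate as 11-point 1:3 or 1:4 DMSO dilutions (≤0.25% DMSO final) in 20 μL reactions at 25 °C for 90 min, with Tyk2 pre-incubated 30 min with 2 mM ATP. Reactions were quenched with TFA plus internal standard peptide, and phosphorylated product was quantified by RapidFire C4 SPE–ESI MS.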

The next experiment deals with JAK1-JH1JH2 (Homo sapiens (Human), UniProt P23458). The experiment is described as follows: Enzymatic inhibition assay (RapidFire HTMS), JAK1. Particulars: 12.5 μM ATP, 200 μM substrate; read-out: JAK1-JH2JH1 IC50. In short, it runs like this: as §1
Sequence of JAK1-JH1JH2 (P23458 574-1154): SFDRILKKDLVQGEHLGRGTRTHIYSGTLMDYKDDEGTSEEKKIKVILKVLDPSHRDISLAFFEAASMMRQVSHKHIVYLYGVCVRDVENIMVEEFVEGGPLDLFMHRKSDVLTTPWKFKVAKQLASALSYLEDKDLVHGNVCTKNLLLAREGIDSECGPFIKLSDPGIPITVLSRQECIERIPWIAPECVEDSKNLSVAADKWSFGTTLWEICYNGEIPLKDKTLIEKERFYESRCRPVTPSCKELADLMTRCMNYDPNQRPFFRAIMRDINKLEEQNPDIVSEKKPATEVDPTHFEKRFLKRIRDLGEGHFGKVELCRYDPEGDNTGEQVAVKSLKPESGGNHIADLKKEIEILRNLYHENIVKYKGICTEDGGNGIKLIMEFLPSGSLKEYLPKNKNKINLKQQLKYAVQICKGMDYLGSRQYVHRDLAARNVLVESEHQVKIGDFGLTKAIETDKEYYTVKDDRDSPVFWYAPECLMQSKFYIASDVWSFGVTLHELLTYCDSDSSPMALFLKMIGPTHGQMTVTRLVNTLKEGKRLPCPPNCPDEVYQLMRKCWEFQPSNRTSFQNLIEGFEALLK

Molecules are shown by their SMILES.

Sequence of JAK2-JH1JH2 (O60674 532-1132): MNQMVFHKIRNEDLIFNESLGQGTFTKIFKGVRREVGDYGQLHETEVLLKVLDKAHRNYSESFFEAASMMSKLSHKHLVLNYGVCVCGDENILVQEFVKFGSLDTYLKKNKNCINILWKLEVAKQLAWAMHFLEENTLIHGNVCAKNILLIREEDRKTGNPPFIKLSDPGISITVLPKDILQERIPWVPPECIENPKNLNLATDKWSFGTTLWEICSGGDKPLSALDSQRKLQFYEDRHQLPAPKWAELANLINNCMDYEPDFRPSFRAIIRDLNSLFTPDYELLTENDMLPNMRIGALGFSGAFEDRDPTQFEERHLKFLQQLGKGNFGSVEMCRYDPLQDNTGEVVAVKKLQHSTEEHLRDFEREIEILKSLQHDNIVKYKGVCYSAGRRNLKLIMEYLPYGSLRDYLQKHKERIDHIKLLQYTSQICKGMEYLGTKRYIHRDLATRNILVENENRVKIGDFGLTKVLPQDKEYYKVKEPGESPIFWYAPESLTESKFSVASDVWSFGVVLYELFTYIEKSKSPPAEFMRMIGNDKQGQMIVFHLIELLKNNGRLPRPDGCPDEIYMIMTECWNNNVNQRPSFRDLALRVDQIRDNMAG
Sequence of Tyk2-JH1JH2 (P29597 580-1182 C936A/C1142A): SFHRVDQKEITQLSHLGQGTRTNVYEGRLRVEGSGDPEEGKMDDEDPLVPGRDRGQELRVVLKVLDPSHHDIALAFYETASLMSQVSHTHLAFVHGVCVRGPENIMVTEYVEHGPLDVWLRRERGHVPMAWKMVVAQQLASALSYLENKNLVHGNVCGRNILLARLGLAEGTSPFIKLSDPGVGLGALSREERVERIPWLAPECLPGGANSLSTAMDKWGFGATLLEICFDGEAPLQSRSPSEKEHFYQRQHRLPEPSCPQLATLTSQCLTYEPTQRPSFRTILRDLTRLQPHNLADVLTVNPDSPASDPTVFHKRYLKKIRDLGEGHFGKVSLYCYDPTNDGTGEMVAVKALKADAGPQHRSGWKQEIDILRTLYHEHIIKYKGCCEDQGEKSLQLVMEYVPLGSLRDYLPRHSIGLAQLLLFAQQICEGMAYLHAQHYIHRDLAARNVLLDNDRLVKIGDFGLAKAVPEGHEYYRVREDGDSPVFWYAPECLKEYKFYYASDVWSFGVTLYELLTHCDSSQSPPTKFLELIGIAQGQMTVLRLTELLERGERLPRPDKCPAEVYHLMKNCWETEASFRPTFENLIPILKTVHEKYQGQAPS

Regarding `CC(C)COC(=O)NCc1nc2cnc3[nH]ccc3c2n1[C@H]1CC[C@H](CC#N)CC1` [Ex. 137, Isobutyl ((1-((1r,4r)-4-(Cyanomethyl)cyclohexyl)-1,6-dihydroimidazo[4,5-d]pyrrolo[2,3-b]pyridin-2-yl)methyl)carbamate], the IC50 against JAK3-JH1JH2 worked out at 280 nM; against JAK2-JH1JH2, 25.1 nM; on Tyk2-JH1JH2, 14.2 nM; on JAK1-JH1JH2 it was 0.9 nM.

Turning to `C[S@@](=O)(=NCc1nc2cnc3[nH]ccc3c2n1[C@H]1CC[C@H](CC#N)CC1)c1ccccc1` [Ex. 163, 2-((1r,4r)-4-(2-((((S)-methyl(oxo)(phenyl)-λ^6-sulfanylidene)amino)methyl)imidazo[4,5-d]pyrrolo[2,3-b]pyridin-1(6H)-yl)cyclohexyl)acetonitrile], the IC50 on JAK3-JH1JH2 was 864 nM; on JAK2-JH1JH2, 21.2 nM; against Tyk2-JH1JH2, 60.8 nM; on JAK1-JH1JH2, 3.2 nM.

On to `CC(C)(C)OC(=O)NCc1nc2cnc3[nH]ccc3c2n1[C@H]1CC[C@H](CC#N)CC1` [Ex. 158, tert-Butyl ((1-((1r,4r)-4-(Cyanomethyl)cyclohexyl)-1,6-dihydroimidazo[4,5-d]pyrrolo[2,3-b]pyridin-2-yl)methyl)carbamate], for which the IC50 against JAK3-JH1JH2 turned out to be 630 nM; on JAK2-JH1JH2, 77.9 nM; at Tyk2-JH1JH2 it was 59.5 nM; at JAK1-JH1JH2, 1.4 nM.

Take `N#CC[C@H]1CC[C@H](n2c(C(=O)N3CCOCC3)nc3cnc4[nH]ccc4c32)CC1` [Ex. 180, 2-((1r,4r)-4-(2-(Morpholine-4-carbonyl)imidazo[4,5-d]pyrrolo[2,3-b]pyridin-1(6H)-yl)cyclohexyl)acetonitrile]: the half-inhibitory concentration (IC50) against JAK3-JH1JH2 is 2290 nM; at JAK2-JH1JH2 it was 149 nM; at Tyk2-JH1JH2 it was 129 nM; on JAK1-JH1JH2 it was 3.4 nM.

`N#CC[C@H]1CC[C@H](n2c(CC(=O)NCc3ncc[nH]3)nc3cnc4[nH]ccc4c32)CC1` [Ex. 36, N-((1H-imidazol-2-yl)methyl)-2-(1-((1r,4r)-4-(cyanomethyl)cyclohexyl)-1,6-dihydroimidazo[4,5-d]pyrrolo[2,3-b]pyridin-2-yl)acetamide]: the IC50 at JAK3-JH1JH2 turned out to be 12 nM; against JAK2-JH1JH2, 0.8 nM; against Tyk2-JH1JH2 it was 2.2 nM; on JAK1-JH1JH2 it was 0.2 nM.

Regarding `N#CC[C@H]1CC[C@H](n2c(-c3ccnc(N)n3)nc3cnc4[nH]ccc4c32)CC1` [Ex. 53, 2-((1r,4r)-4-(2-(2-Aminopyrimidin-4-yl)imidazo[4,5-d]pyrrolo[2,3-b]pyridin-1(6H)-yl)cyclohexyl)acetonitrile], the IC50 at JAK3-JH1JH2 amounted to 61.8 nM; against JAK2-JH1JH2, 3.2 nM; at Tyk2-JH1JH2 it was 9 nM; at JAK1-JH1JH2, 0.2 nM.

For `CC(C)(C)CNC(=O)Cc1nc2cnc3[nH]ccc3c2n1[C@H]1CC[C@H](CC#N)CC1` [Ex. 44, 2-(1-((1r,4r)-4-(Cyanomethyl)cyclohexyl)-1,6-dihydroimidazo[4,5-d]pyrrolo[2,3-b]pyridin-2-yl)-N-neopentylacetamide], the IC50 on JAK3-JH1JH2 was determined as 52.3 nM; at JAK2-JH1JH2 it was 5.4 nM; against Tyk2-JH1JH2, 6 nM; on JAK1-JH1JH2 it was 0.2 nM.

As to `N#CC[C@H]1CC[C@H](n2c(CO/N=C(\N)CC3CC3)nc3cnc4[nH]ccc4c32)CC1` [Ex. 112, (Z)—N-((1-((1r,4r)-4-(Cyanomethyl)cyclohexyl)-1,6-dihydroimidazo[4,5-d]pyrrolo[2,3-b]pyridin-2-yl)methoxy)-2-cyclopropylacetimidamide], the IC50 worked out at 161 nM against JAK3-JH1JH2, 3.6 nM on JAK2-JH1JH2, 40.8 nM against Tyk2-JH1JH2 and 0.6 nM on JAK1-JH1JH2.

With `COCC/C(N)=N/OCc1nc2cnc3[nH]ccc3c2n1[C@H]1CC[C@H](CC#N)CC1` [Ex. 72, (Z*)—N-((1-((1r,4r)-4-(Cyanomethyl)cyclohexyl)-1,6-dihydroimidazo[4,5-d]pyrrolo[2,3-b]pyridin-2-yl)methoxy)-3-methoxypropanimidamide], the IC50 turned out to be 181 nM against JAK3-JH1JH2, 5.2 nM on JAK2-JH1JH2, 27.2 nM against Tyk2-JH1JH2 and 0.4 nM at JAK1-JH1JH2.

Turning to `N#CC[C@H]1CC[C@H](n2c(CC(=O)NC34CCC(C(N)=O)(CC3)CC4)nc3cnc4[nH]ccc4c32)CC1` [Ex. 58, 4-(2-(1-((1r,4r)-4-(Cyanomethyl)cyclohexyl)-1,6-dihydroimidazo[4,5-d]pyrrolo[2,3-b]pyridin-2-yl)acetamido)bicyclo[2.2.2]octane-1-carboxamide], the IC50 amounted to 31.4 nM at JAK3-JH1JH2, 1.4 nM against JAK2-JH1JH2, 3.3 nM against Tyk2-JH1JH2 and 0.3 nM on JAK1-JH1JH2.

Regarding `Cc1nc(C)c(-c2nc3cnc4[nH]ccc4c3n2[C@H]2CC[C@H](CC#N)CC2)o1` [Ex. 183, 2-((1r,4r)-4-(2-(2,4-dimethyloxazol-5-yl)imidazo[4,5-d]pyrrolo[2,3-b]pyridin-1(6H)-yl)cyclohexyl)acetonitrile], the IC50 against JAK3-JH1JH2 stood at 645 nM; at JAK2-JH1JH2 it was 52.9 nM; against Tyk2-JH1JH2, 118 nM; at JAK1-JH1JH2, 4.3 nM.

In the case of `N#CC[C@H]1CC[C@H](n2c(C(=O)N3CCC(O)CC3)nc3cnc4[nH]ccc4c32)CC1` [Ex. 181, 2-((1r,4r)-4-(2-(4-Hydroxypiperidine-1-carbonyl)imidazo[4,5-d]pyrrolo[2,3-b]pyridin-1(6H)-yl)cyclohexyl)acetonitrile], the IC50 on JAK3-JH1JH2 came to 6300 nM; against JAK2-JH1JH2, 331 nM; against Tyk2-JH1JH2 it was 159 nM; on JAK1-JH1JH2 it was 5.4 nM.

Regarding `N#CC[C@H]1CC[C@H](n2c(CN/C(CC3CCCCC3)=N/O)nc3cnc4[nH]ccc4c32)CC1` [Ex. 95], the IC50 against JAK3-JH1JH2 stood at 18.7 nM; on JAK2-JH1JH2, 0.6 nM; against Tyk2-JH1JH2 it was 1.4 nM; at JAK1-JH1JH2, 0.5 nM.

Turning to `N#CC[C@H]1CC[C@H](n2c(CNC(=O)c3ccc(C#N)cc3)nc3cnc4[nH]ccc4c32)CC1` [Ex. 82, 4-Cyano-N-((1-((1r,4r)-4-(cyanomethyl)cyclohexyl)-1,6-dihydroimidazo[4,5-d]pyrrolo[2,3-b]pyridin-2-yl)methyl)benzamide], the half-maximal inhibitory concentration (IC50) against JAK3-JH1JH2 amounted to 189 nM; against JAK2-JH1JH2 it was 13.6 nM; against Tyk2-JH1JH2, 5.2 nM; on JAK1-JH1JH2 it was 0.4 nM.

Consider `COCCOCCOCc1nc2cnc3[nH]ccc3c2n1[C@H]1CC[C@H](CC#N)CC1` [Ex. 194, 2-((1r,4r)-4-(2-((2-(2-methoxyethoxy)ethoxy)methyl)imidazo[4,5-d]pyrrolo[2,3-b]pyridin-1(6H)-yl)cyclohexyl)acetonitrile], for which the IC50 against JAK3-JH1JH2 worked out at 1460 nM; against JAK2-JH1JH2, 133 nM; against Tyk2-JH1JH2, 72.5 nM; on JAK1-JH1JH2, 9.4 nM.

Turning to `N#CCCC(=O)NCc1nc2cnc3[nH]ccc3c2n1[C@H]1CC[C@H](CC#N)CC1` [Ex. 157, 3-Cyano-N-((1-((1r,4r)-4-(cyanomethyl)cyclohexyl)-1,6-dihydroimidazo[4,5-d]pyrrolo[2,3-b]pyridin-2-yl)methyl)propanamide], the IC50 at JAK3-JH1JH2 amounted to 1110 nM; against JAK2-JH1JH2, 74.9 nM; against Tyk2-JH1JH2, 39.5 nM; on JAK1-JH1JH2, 1.4 nM.

With `N#CC[C@H]1CC[C@H](n2c(CC(=O)NCCOc3ccncc3)nc3cnc4[nH]ccc4c32)CC1` [Ex. 43, 2-(1-((1r,4r)-4-(Cyanomethyl)cyclohexyl)-1,6-dihydroimidazo[4,5-d]pyrrolo[2,3-b]pyridin-2-yl)-N-(2-(pyridin-4-yloxy)ethyl)acetamide], the half-maximal inhibitory concentration (IC50) is 87.4 nM at JAK3-JH1JH2, 5.1 nM against JAK2-JH1JH2, 5.7 nM against Tyk2-JH1JH2 and 0.2 nM on JAK1-JH1JH2.
